This note sets out measurements from the SangsterLogP compilation.

The nature of data set [1]: method code SF, from DOI: 10.1021/jm00307a001, PMID: 5637185.
The nature of data set [2]: method code SF-AS, from DOI: 10.1007/bf01067967, PMID: 3820093. To be noted: pH 7.5.
The nature of data set [3]: method code SF-RC, from DOI: 10.1016/s0969-8051(98)00096-1, PMID: 10100217. To be noted: pH 7.4.
Data set [4] is described as follows: method code SF-AS, from PMID: 3699148. The conditions noted are these: pH 7.4.
Data set [5] in a line: method code SF, from DOI: 10.1515/bc.2002.085, PMID: 12108546.
Data set [6] in a line: method code SF-AS, from DOI: 10.1007/bf02877675, PMID: 411721.
Data set [7] can be described thus: method code SF-HPLC, from DOI: 10.1016/0006-2952(84)90322-8, PMID: 6704182.
Data set [8] is described as follows: method code SF-AS, from DOI: 10.1002/jps.2600650731. To be noted: pH 11.5.
A short description of data set [9]: method code SF-AS, from DOI: 10.1111/j.1476-5381.1988.tb11523.x, PMID: 2900037.
Data set [10] can be described thus: method code SF-AS, from Holmes, L.; Lough, E. (1976). Effect of Intramolecular Hydrogen Bonding on Partition Coefficients [Technical Note]. Defence Research Establishment Suffield.
Data set [11] is described as follows: method code SF, from DOI: 10.1021/jm030913e.s001, PMID: 14736235. The conditions noted are these: pH 7.4.
Data set [12] is described as follows: method code SF-AS, from DOI: 10.1021/es00012a023, PMID: 22148214.
Experiment in data set [13]: not given
This is another data set of the same source.

Data set [14] is described as follows: method code SF-HPLC, from DOI: 10.1016/0378-5173(87)90234-1. The conditions noted are these: pH 4.0.
Experiment in data set [15]: not given
This is another data set of the same source.

Experiment in data set [16]: not given
The source holds these as a separate data set.

Experiment in data set [17]: not given
The source holds these as a separate data set.

The nature of data set [18]: method code SF-AS, from DOI: 10.1002/jps.2600800717, PMID: 1658297.
Data set [19] is described as follows: method code SF-AS, from DOI: 10.1111/j.2042-7158.1979.tb13606.x, PMID: 41067. The conditions noted are these: pH 1.2.
Data set [20] in a line: method code SF, from DOI: 10.1016/0048-3575(88)90017-x.
A short description of data set [21]: method code SF-EPR, from DOI: 10.1007/bf01870789, PMID: 2549250. To be noted: pH 12.0.
Data set [22] in a line: method code SF-AS, from DOI: 10.1021/jm00223a031, PMID: 810572.
Data set [23] in a line: method code SF-AS, from DOI: 10.1021/jm00163a043, PMID: 2153206. The conditions noted are these: pH 7.0.
Data set [24] is described as follows: method code SF, from DOI: 10.1016/j.bmcl.2006.04.097, PMID: 16714112.
A short description of data set [25]: method code SF-HPLC, from DOI: 10.1016/s0223-5234(02)01360-0, PMID: 12008054. To be noted: pH 7.4.

On to `C#CC(/C=C/Cl)(CC)OC(N)=O` (configuration not stated), for which, in data set [1], the logP amounted to 1.71.

On to `CC(C)c1ccc(N)cc1`, for which, in data set [2], the logD is 2.31.

For `COC1=C(OC)C(=O)C(CCCCCCCCCCO)=C(C)C1=O`, the log distribution coefficient (logD) in data set [3] stood at 2.96.

Take `NC(=O)c1cc(Cl)ccc1NCCO`: the log distribution coefficient (logD) in data set [4] amounted to 1.26.

In turn, `CC1(C)C(C=C(Cl)Cl)C1C(=O)OCc1cccc(Oc2ccccc2)c1` (configuration not stated) displayed a logP of 5.85.

`CCCCCCCCOC(=O)C1(C)CCC=[N+]1[O-]` (configuration not stated): in data set [5], the logP stood at 1.62.

In data set [6], `Cc1ccc(NN=C(C#N)C#N)cc1` came in with a log partition coefficient (logP) of 3.02.

As to `CCOC(=O)C1(C)CCC=[N+]1[O-]` (configuration not stated), the logP in [5] was -0.82.

As for `O=c1ccn(C2OC(CO)C(O)C2O)c(=O)[nH]1` (configuration not stated), the lipophilicity (logP) in data set [7] was -1.81.

As to `CCC/N=C(N)/N=C(\N)Nc1ccc(Cl)cc1`, the logD in data set [8] came to 2.63.

Regarding `CNC(=C[N+](=O)[O-])NCCSCc1nccs1`, the logD in data set [9] (pH 9.0) is -0.15.

As for `CC(=O)c1ccc(O)cc1`, in data set [10], the lipophilicity (logP) worked out at 1.45.

`O=C(c1ccccc1)c1ccccc1O` yielded a logP in data set [10] of 3.52.

`CCCCOC(=O)C1(C)CCC=[N+]1[O-]` (configuration not stated): in [5], the log partition coefficient (logP) was determined as 0.12.

For the molecule `CC[C@@H](C(N)=O)N1CCCC1=O`, in data set [11], the logD is -0.65.

On to `CC(C)OC(=O)CS(=O)c1ccccc1[N+](=O)[O-]` (configuration not stated), for which the logP in data set [12] stood at 1.59.

In the case of `CC(=O)Nc1ccn([C@@H]2O[C@H](COC(C)=O)[C@@H](OC(C)=O)[C@@H]2OC(C)=O)c(=O)n1`, the log partition coefficient (logP) in data set [7] was -0.16.

Regarding `COc1c(O)c(C)c(CCCCCCCCCCO)c(O)c1OC`, the log distribution coefficient (logD) in [3] worked out at 2.55.

Consider `CNc1ccccc1C`, for which the logP in [13] came to 2.16.

`Cc1ccc2ccccc2n1` gave a log partition coefficient (logP) in data set [13] of 2.59.

Turning to `CON(C)C(=O)Nc1ccc(Cl)cc1`, the logP was 2.16.

In the case of `O=C(c1ccccn1)n1c(=O)[nH]cc(F)c1=O`, in data set [14], the logD was -0.06.

The molecule `CC(C)C(C(=O)O)c1ccc([N+](=O)[O-])cc1` (configuration not stated) showed a logP in data set [15] of 2.09.

In turn, `CNc1nc(NC(C)C)nc(SC)n1` registered a logP in data set [16] of 2.79.

In data set [17], `Cc1ccc(C)c(O)c1` had a logP of 2.48.

Take `CC1(C)CC(N(N=O)C(=O)NC2C(O)OC(CO)C(O)C2O)C(C)(C)N1O` (configuration not stated): the logP in data set [18] amounted to 1.81.

As to `CCC1(CC)SCC(=O)NC1=O`, the logP in data set [1] stood at 1.5.

`COc1ccc(C(=O)O)cc1` displayed a logD in [19] of 1.88.

In turn, `CC(=O)OCN1C(=O)C=C(C)C1=O` returned a lipophilicity (logP) in data set [20] of 0.45.

On to `CC1(C)CC(N)CC(C)(C)N1O`, for which, in [21], the logD was 0.56.

`COc1ccc(O)c2ncccc12` returned a logP in data set [22] of 2.06.

In turn, `N#CC(C#N)=NNc1cccc(Cl)c1` showed a logP in [6] of 3.13.

Take `CC(=O)OCN1C(=O)C2CC=CCC2C1=O` (configuration not stated): in [20], the logP amounted to 0.97.

For `Cc1ccc(CC(=O)O)cc1`, in data set [15], the logP came out at 2.04.

For the molecule `CC(C)(C)c1ccc(O)c(C(C)(C)C)c1`, the logP in [17] amounted to 4.74.

In [16], `CCNc1nc(NCC)nc(OC)n1` came in with a log partition coefficient (logP) of 2.41.

`CC[C@@H](C(N)=O)N1C[C@H](CI)CC1=O` returned a pH-dependent lipophilicity (logD) in data set [11] of 0.51.

For `Oc1cccc2c(Cl)ccnc12`, in data set [22], the logP was 2.67.

As for `O=C(NCCCOc1cccc(N2CCCCC2)c1)c1ccccc1`, in data set [9] (pH 7.5), the logD stood at 3.97.

For `CNC1CC(C)(C)N(O)C(C)(C)C1`, the logD in data set [21] worked out at 0.84.

Take `CCCCOc1ccc(C(=O)O)cc1`: the logD in data set [19] is 3.57.

Turning to `O=c1[nH]c(=S)ccn1[C@H]1C=C[C@@H](CO)O1`, in data set [23], the logD was -0.28.

Regarding `CC(C)OC(=O)n1cc(F)c(=O)[nH]c1=O`, the pH-dependent lipophilicity (logD) in [14] was 0.2.

In data set [12], `CC(C)OC(=O)CS(=O)c1ccc([N+](=O)[O-])cc1[N+](=O)[O-]` (configuration not stated) displayed a logP of 1.61.

On to `CNC(=NC#N)NCCSCc1csc(N=C(N)N)n1`, for which the logD in [9] (pH 9.0) worked out at 0.6.

`COC1=C(OC)C(=O)C(C)=CC1=O`: the logD in [3] was 0.73.

Take `COC(=O)CSc1ccccc1[N+](=O)[O-]`: the logP in data set [12] came out at 1.88.

For `CN(N=O)C(=O)NC[C@H](O)[C@@H](O)[C@H](O)[C@H](O)CO`, the log partition coefficient (logP) in data set [18] is -0.96.

Molecule `CCCCCC/N=C(N)/N=C(\N)Nc1ccc(Cl)cc1` displayed a logD in data set [8] of 1.85.

In turn, `Cc1cn([C@H]2C[C@H](N=[N+]=[N-])[C@@H](CO)O2)c(=O)[nH]c1=S` returned a pH-dependent lipophilicity (logD) in [23] of 1.07.

`O=[N+]([O-])c1ccccc1C1=NCCO1` came in with a log partition coefficient (logP) in data set [24] of 1.27.

Consider `Nc1ccc2ccccc2c1`, for which the pH-dependent lipophilicity (logD) in data set [2] was determined as 2.4.

In data set [14], `CCCCCCOC(=O)n1cc(F)c(=O)[nH]c1=O` yielded a pH-dependent lipophilicity (logD) of 2.04.

With `NC(=O)c1ccccc1NCCO`, the log distribution coefficient (logD) in data set [4] was -0.05.

`COc1cccc(C=O)c1O`: the logP in [10] turned out to be 1.33.

The molecule `CN(C(=N)N)/C(N)=N/c1ccc(Cl)cc1` showed a log distribution coefficient (logD) in data set [8] of 1.58.

For `CC(=O)OC[C@H]1O[C@@H](n2ccc(N)nc2=O)[C@@H](OC(C)=O)[C@@H]1OC(C)=O`, in data set [7], the logP was -0.8.

The molecule `COc1ccc(CCC(=O)O)cc1` had a logD in data set [19] of 1.9.

Molecule `CCNc1nc(NC(C)CC)nc(OC)n1` (configuration not stated) returned a logP in data set [16] of 2.96.

The molecule `CC(C)C[C@H]1C(=O)N2CCC[C@H]2[C@]2(O)O[C@](NC(=O)[C@@H]3C=C4c5cccc6[nH]c(Br)c(c56)C[C@H]4N(C)C3)(C(C)C)C(=O)N12` registered a pH-dependent lipophilicity (logD) in data set [25] of 4.61.

The molecule `CCOP(=S)(OCC)Oc1ccc([N+](=O)[O-])cc1` displayed a logP of 3.45.

In [2], `CCCCc1ccc(N)cc1` registered a log distribution coefficient (logD) of 3.05.

Regarding `Cc1cn([C@H]2C=C[C@@H](CO)O2)c(=O)[nH]c1=S`, the logD in data set [23] worked out at 0.09.

`Cc1ccccc1N(C)C` had a logP in data set [13] of 2.81.

Consider `Fc1cccc(Cl)c1C1=NCCO1`, for which the logP in data set [24] amounted to 1.89.

`CC(C)(C)c1cc(C(C)(C)C)c(O)c(C(C)(C)C)c1`: in data set [17], the lipophilicity (logP) amounted to 6.3.

For the molecule `CNC(=NC#N)NCCSCc1nc[nH]c1C`, the logD in data set [25] stood at 0.35.

With `C#CC(C=C)(CC)OC(N)=O` (configuration not stated), the lipophilicity (logP) in data set [1] was found to be 1.09.

`CCCCOc1ccc(CC(=O)O)cc1` yielded a logP in data set [15] of 2.94.

In data set [20], `CC(=O)OCN1C(=O)c2cccc3cccc(c23)C1=O` came in with a logP of 2.34.

In turn, `Cc1ccc(SCCNc2ccccc2C(N)=O)cc1` yielded a logD in data set [4] of 3.15.

As to `N#CC(C#N)=NNc1ccccc1`, the log partition coefficient (logP) in [6] turned out to be 2.49.

Regarding `Cc1ccnc2c(O)cccc12`, the logP in data set [22] was determined as 2.36.

In turn, `CC1(C)CC(N(N=O)C(=O)NC2C(O)OC(CO)C(O)C2O)CC(C)(C)N1O` (configuration not stated) registered a logP in data set [18] of 1.87.

`CN(CCO)C1CC(C)(C)N(O)C(C)(C)C1` gave a logD in data set [21] of 0.53.

In the case of `Fc1cccc(F)c1C1=NCCO1`, the logP in [24] worked out at 1.45.

In [11], `CCC[C@@H]1CC(=O)N([C@@H](CC)C(N)=O)C1` yielded a log distribution coefficient (logD) of 1.
